Data on one compound can be found in ChEMBL document CHEMBL2073992, “Polarized transport of docetaxel and vinblastine mediated by P-glycoprotein in human intestinal epithelial cell monolayers” (Biochem Pharmacol, 1994).

SMILES strings stand for the structures.

The target of this data set is ATP-dependent translocase ABCB1 (Homo sapiens, UniProt P08183). As to the kind of experiment: TP_TRANSPORTER: transepithelial transport (basal to apical) in Caco-2 cells. The format is functional, cell-based.
Sequence of ATP-dependent translocase ABCB1 (P08183 whole entry): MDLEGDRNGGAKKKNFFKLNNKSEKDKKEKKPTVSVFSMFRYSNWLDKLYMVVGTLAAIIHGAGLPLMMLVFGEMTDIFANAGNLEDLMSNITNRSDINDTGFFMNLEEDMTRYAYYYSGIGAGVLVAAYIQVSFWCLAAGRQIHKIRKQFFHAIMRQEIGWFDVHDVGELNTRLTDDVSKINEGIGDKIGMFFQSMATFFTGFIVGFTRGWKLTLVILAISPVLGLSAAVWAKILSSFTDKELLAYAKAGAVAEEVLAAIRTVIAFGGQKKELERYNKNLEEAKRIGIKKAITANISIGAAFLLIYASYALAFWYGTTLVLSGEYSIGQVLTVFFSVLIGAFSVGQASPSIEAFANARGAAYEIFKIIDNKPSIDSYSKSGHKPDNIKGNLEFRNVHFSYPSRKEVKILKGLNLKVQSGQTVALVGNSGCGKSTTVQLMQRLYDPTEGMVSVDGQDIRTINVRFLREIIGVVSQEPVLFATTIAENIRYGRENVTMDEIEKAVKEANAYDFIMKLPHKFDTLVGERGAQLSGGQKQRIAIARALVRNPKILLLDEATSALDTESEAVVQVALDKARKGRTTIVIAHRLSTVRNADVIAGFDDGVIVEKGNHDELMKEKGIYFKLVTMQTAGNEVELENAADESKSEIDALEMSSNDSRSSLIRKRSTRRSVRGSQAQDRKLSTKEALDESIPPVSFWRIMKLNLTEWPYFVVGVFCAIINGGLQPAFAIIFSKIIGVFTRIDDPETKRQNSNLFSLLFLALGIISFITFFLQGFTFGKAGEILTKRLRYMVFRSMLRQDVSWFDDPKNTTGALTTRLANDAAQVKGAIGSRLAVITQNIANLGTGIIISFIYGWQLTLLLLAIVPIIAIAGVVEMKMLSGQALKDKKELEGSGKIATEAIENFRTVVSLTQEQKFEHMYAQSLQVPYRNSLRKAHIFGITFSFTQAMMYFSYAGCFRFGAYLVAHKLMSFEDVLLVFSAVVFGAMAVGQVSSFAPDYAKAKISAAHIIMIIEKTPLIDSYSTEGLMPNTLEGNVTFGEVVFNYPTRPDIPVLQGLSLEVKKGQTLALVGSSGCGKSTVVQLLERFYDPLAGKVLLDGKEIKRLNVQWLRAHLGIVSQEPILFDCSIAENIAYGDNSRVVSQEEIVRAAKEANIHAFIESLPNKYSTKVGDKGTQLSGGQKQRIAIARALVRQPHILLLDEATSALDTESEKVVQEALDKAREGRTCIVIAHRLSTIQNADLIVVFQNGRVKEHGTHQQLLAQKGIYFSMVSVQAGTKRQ

As for `CC(=O)O[C@@]12CO[C@@H]1C[C@H](O)[C@@]1(C)C(=O)[C@H](O)C3=C(C)[C@@H](OC(=O)[C@H](O)[C@@H](NC(=O)OC(C)(C)C)c4ccccc4)C[C@@](O)([C@@H](OC(=O)c4ccccc4)[C@H]21)C3(C)C.O.O.O` [DOCETAXEL], the Activity result was “substrate [+]”.
